According to the supplement of paper PMC10307832:

How the values were obtained:
Assay in all cases: relative viability (nuclei count vs DMSO), 5 days (fraction); higher = more cells survive
[1] = compound: C1CN(CCN1)C2=CC=C(C=C2)C3=CN4C(=C(C=N4)C5=CC=NC6=CC=CC=C56)N=C3 [DM3189]
Outline: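 Only plates meeting two conditions passed: control CV below 25% and at least one doubling. Lung cancer cell lines, kept overnight at 37 °C in 1536-well plates, were pinned with five library-drug doses (not always all listed) √10 apart on vehicle-anchored plates and grown 5 days without medium change. A one-step fix, permeabilisation and Hoechst stain preceded 4× imaging and MetaXpress nuclear counting. Viability equals treated-well nuclei divided by vehicle-well nuclei, as the median over plates.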

[2] = compound: C1CN(CCN1)C2=CC=C(C=C2)C3=CN4C(=C(C=N4)C5=CC=NC6=CC=CC=C56)N=C3 [DM3189] + CC1(C)CCC(c2ccc(Cl)cc2)=C(CN2CCN(c3ccc(C(=O)NS(=O)(=O)c4ccc(N[C@H](CCN5CCOCC5)CSc5ccccc5)c(S(=O)(=O)C(F)(F)F)c4)cc3)CC2)C1 [Navitoclax] (partner 0.5 µM)
Outline: (§1)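 Relative viability equals treated-well nuclei counts divided by vehicle-well nuclei counts. Counts came from 4× images of lung cancer cell lines grown in 1536-well plates for 5 days after pin-tool dosing on the day after seeding. Dosing used one drug alone or a fixed anchor-drug dose plus five library-drug doses (not always all listed) in √10 steps, and values are medians of duplicate plates.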

[3] = compound: C1CN(CCN1)C2=CC=C(C=C2)C3=CN4C(=C(C=N4)C5=CC=NC6=CC=CC=C56)N=C3 [DM3189] + COc1cccc2cc(-c3nc([C@H]4CC[C@H](C(=O)O)CC4)n4ncnc(N)c34)[nH]c12 [OSI-027] (partner 0.5 µM)
Outline: as §1

[4] = compound: C1CN(CCN1)C2=CC=C(C=C2)C3=CN4C(=C(C=N4)C5=CC=NC6=CC=CC=C56)N=C3 [DM3189] + CS(=O)(=O)N1CCN(Cc2cc3nc(-c4cccc5[nH]ncc45)nc(N4CCOCC4)c3s2)CC1 [Pictilisib] (partner 1 µM)
Outline: as §1

[5] = compound: C1CN(CCN1)C2=CC=C(C=C2)C3=CN4C(=C(C=N4)C5=CC=NC6=CC=CC=C56)N=C3 [DM3189] + Nc1ncn([C@H]2C[C@H](O)[C@@H](CO)O2)c(=O)n1 [Decitabine] (partner 2 µM)
Outline: as §1

Cell Line | relative viability ([1]; 0.08 µM) | relative viability ([1]; 0.253 µM) | relative viability ([1]; 0.8 µM) | relative viability ([1]; 2.53 µM) | relative viability ([2]; first compound 0.08 µM) | relative viability ([2]; first compound 0.253 µM) | relative viability ([2]; first compound 0.8 µM) | relative viability ([2]; first compound 2.53 µM) | relative viability ([3]; first compound 0.08 µM) | relative viability ([3]; first compound 0.253 µM) | relative viability ([3]; first compound 0.8 µM) | relative viability ([3]; first compound 2.53 µM) | relative viability ([4]; first compound 0.08 µM) | relative viability ([4]; first compound 0.253 µM) | relative viability ([4]; first compound 0.8 µM) | relative viability ([4]; first compound 2.53 µM) | relative viability ([5]; first compound 0.08 µM) | relative viability ([5]; first compound 0.253 µM) | relative viability ([5]; first compound 0.8 µM) | relative viability ([5]; first compound 2.53 µM)
PC-3 [JPC-3] | 1.13 | 1.01 | 1.04 | 1.1 | 0.826 | 0.83 | 0.859 | 0.892 | 0.887 | 0.422 | 0.79 | 0.587 | 0.871 | 0.71 | 0.669 | 0.75 | 0.848 | 0.802 | 0.797 | 0.797
PC-14 | 1.14 | 0.954 | 0.871 | 0.932 | 1.04 | 1.03 | 1 | 1.08 | 1.05 | 0.837 | 0.76 | 0.946 | 0.782 | 0.739 | 0.673 | 0.538 | 0.303 | 0.237 | 0.21 | 0.253
RERF-LC-KJ | 1.16 | 1.04 | 1.04 | 1.05 | 0.997 | 1.35 | 0.81 | 1.09 | 0.666 | 0.59 | 0.586 | 0.601 | 0.585 | 0.694 | 0.602 | 0.562 | 0.754 | 0.615 | 0.757 | 0.618
SK-LU-1 | 1.03 | 0.793 | 0.814 | 0.749 | 0.686 | 0.595 | 0.564 | 0.397 | 0.373 | 0.283 | 0.299 | 0.284 | 0.531 | 0.4 | 0.393 | 0.393 | 0.567 | 0.585 | 0.537 | 0.451
SK-MES-1 | 1.04 | 0.981 | 0.853 | 0.94 | 1.21 | 1.28 | 1.08 | 1.18 | 0.602 | 0.53 | 0.523 | 0.481 | 0.305 | 0.3 | 0.289 | 0.319 | 0.461 | 0.418 | 0.317 | 0.361
SW 1573 | 1.06 | 0.938 | 0.903 | 0.81 | 1.11 | 0.964 | 0.901 | 1.25 | 0.569 | 0.618 | 0.488 | 0.523 | 0.541 | 0.491 | 0.466 | 0.399 | 0.616 | 0.381 | 0.46 | 0.263
UMC-11 | 1.05 | 0.958 | 0.816 | 0.795 | 0.287 | 0.322 | 0.295 | 0.265 | 0.531 | 0.461 | 0.395 | 0.51 | 0.836 | 0.795 | 0.764 | 0.702 | 0.616 | 0.506 | 0.602 | 0.511
